Source: the supplement of paper PMC10307832

Experiments:
Experiment in all cases: relative viability (nuclei count vs DMSO), 5 days (fraction); higher = more cells survive
[1] = system: IA-LM
How it was run: (§1)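 A single step with final 0.05% Triton X-100, 1% formaldehyde and 1 ug/ml Hoechst fixed the cells and stained nuclei 5 days after treatment. Lung cancer cell lines in 1536-well plates had been treated by pin tool the day after seeding with one drug alone or a fixed anchor-drug dose plus five library-drug doses (not always all listed) in √10 steps, and nuclei were counted on 4× images. Relative viability is the ratio of nuclei in treated wells to nuclei in vehicle wells, taken as the median of duplicate plates.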

[2] = system: NCI-H1703
How it was run: as §1

[3] = system: A549
How it was run: as §1

[4] = system: NCI-H1299
How it was run: as §1

[5] = system: EBC-1
How it was run: as §1

[6] = system: Calu-6
How it was run: as §1

[7] = system: NCI-H520
How it was run: as §1

SMILES | relative viability ([1]; first compound 0.04 µM) | relative viability ([1]; first compound 0.1265 µM) | relative viability ([1]; first compound 0.4 µM) | relative viability ([1]; first compound 1.265 µM) | relative viability ([1]; first compound 4 µM) | relative viability ([2]; first compound 0.04 µM) | relative viability ([2]; first compound 0.4 µM) | relative viability ([2]; first compound 1.265 µM) | relative viability ([2]; first compound 4 µM) | relative viability ([3]; first compound 0.04 µM) | relative viability ([3]; first compound 0.1265 µM) | relative viability ([3]; first compound 0.4 µM) | relative viability ([3]; first compound 1.265 µM) | relative viability ([3]; first compound 4 µM) | relative viability ([4]; first compound 0.04 µM) | relative viability ([4]; first compound 0.1265 µM) | relative viability ([4]; first compound 0.4 µM) | relative viability ([4]; first compound 1.265 µM) | relative viability ([4]; first compound 4 µM) | relative viability ([5]; first compound 0.04 µM) | relative viability ([5]; first compound 0.1265 µM) | relative viability ([5]; first compound 0.4 µM) | relative viability ([5]; first compound 1.265 µM) | relative viability ([5]; first compound 4 µM) | relative viability ([6]; first compound 0.04 µM) | relative viability ([6]; first compound 0.1265 µM) | relative viability ([6]; first compound 0.4 µM) | relative viability ([6]; first compound 1.265 µM) | relative viability ([6]; first compound 4 µM) | relative viability ([7]; first compound 0.04 µM) | relative viability ([7]; first compound 0.1265 µM) | relative viability ([7]; first compound 0.4 µM) | relative viability ([7]; first compound 1.265 µM) | relative viability ([7]; first compound 4 µM) | relative viability ([2]; first compound 0.1265 µM)
Clc1ccc(Nc2nnc(Cc3ccncc3)c3ccccc23)cc1 [Vatalanib] + CC1(C)CCC(c2ccc(Cl)cc2)=C(CN2CCN(c3ccc(C(=O)NS(=O)(=O)c4ccc(N[C@H](CCN5CCOCC5)CSc5ccccc5)c(S(=O)(=O)C(F)(F)F)c4)cc3)CC2)C1 [Navitoclax] (partner 0.5 µM) | 0.869 | 0.701 | 0.686 | 0.746 | 0.737 | 0.994 | 1.71 | 0.643 | 0.301 | 1.21 | 1.33 | 1.31 | 1.16 | 1.06 | 1.04 | 1.05 | 1.06 | 1.04 | 1.06 | 0.382 | 0.396 | 0.46 | 0.368 | 0.328 | 0.919 | 0.756 | 0.913 | 0.788 | 0.757 | 0.974 | 1.02 | 1.1 | 0.907 | 1.06 | –
Clc1ccc(Nc2nnc(Cc3ccncc3)c3ccccc23)cc1 [Vatalanib] + CS(=O)(=O)CCNCc1ccc(-c2ccc3ncnc(Nc4ccc(OCc5cccc(F)c5)c(Cl)c4)c3c2)o1 [Lapatinib] (partner 2 µM) | 0.869 | 0.816 | 0.885 | 0.674 | 0.674 | 1.28 | 1.4 | 0.611 | 0.435 | 0.991 | 0.918 | 1.05 | 1 | 1.01 | 0.96 | 0.961 | 0.931 | 0.939 | 0.969 | 0.165 | 0.204 | 0.22 | 0.232 | 0.202 | 1.14 | 1.02 | 1.09 | 1.05 | 1.07 | 0.94 | 0.711 | 0.891 | 0.741 | 0.82 | 1.05
Clc1ccc(Nc2nnc(Cc3ccncc3)c3ccccc23)cc1 [Vatalanib] + CS(=O)(=O)N1CCN(Cc2cc3nc(-c4cccc5[nH]ncc45)nc(N4CCOCC4)c3s2)CC1 [Pictilisib] (partner 1 µM) | 0.368 | 0.354 | 0.319 | 0.337 | 0.36 | 0.229 | 0.242 | 0.209 | 0.227 | 0.495 | 0.506 | 0.502 | 0.52 | 0.505 | 0.835 | 0.703 | 0.967 | 0.66 | 0.857 | 0.346 | 0.393 | 0.45 | 0.276 | 0.411 | 0.891 | 0.907 | 0.986 | 0.883 | 0.835 | 0.312 | 0.277 | 0.34 | 0.306 | 0.308 | 0.206
Clc1ccc(Nc2nnc(Cc3ccncc3)c3ccccc23)cc1 [Vatalanib] + C[C@@H](Oc1cc(-c2cnn(C3CCNCC3)c2)cnc1N)c1c(Cl)ccc(F)c1Cl [Crizotinib] (partner 1 µM) | 0.649 | 0.875 | 0.724 | 0.743 | 0.721 | 0.669 | 0.866 | 0.524 | 0.303 | 0.857 | 0.843 | 0.907 | 0.597 | 0.713 | 0.956 | 0.96 | 0.957 | 0.964 | 0.965 | 0.218 | 0.178 | 0.176 | 0.191 | 0.21 | 0.756 | 0.662 | 0.779 | 0.779 | 0.643 | 0.667 | 0.849 | 0.824 | 0.614 | 0.696 | 0.77
Clc1ccc(Nc2nnc(Cc3ccncc3)c3ccccc23)cc1 [Vatalanib] + C[C@]1(O)C[C@@H](c2nc(-c3ccc4ccc(-c5ccccc5)nc4c3)c3c(N)nccn32)C1 [Linsitinib] (partner 1 µM) | 0.763 | 0.59 | 0.69 | 0.55 | 0.582 | 0.804 | 1.21 | 0.386 | 0.211 | 0.51 | 0.573 | 0.703 | 0.656 | 0.592 | 1.05 | 0.955 | 0.948 | 0.961 | 0.967 | 1.14 | 0.777 | 0.994 | 0.812 | 0.808 | – | 0.926 | 1.02 | 0.912 | 1.01 | 0.901 | 0.888 | 0.802 | 0.86 | 0.989 | –
Clc1ccc(Nc2nnc(Cc3ccncc3)c3ccccc23)cc1 [Vatalanib] + Cc1nc(NC(=O)N2CCC[C@H]2C(N)=O)sc1-c1ccnc(C(C)(C)C(F)(F)F)c1 [Alpelisib] (partner 2 µM) | 0.747 | 0.754 | 0.715 | 0.797 | 0.918 | 0.327 | 0.395 | 0.235 | 0.212 | 0.795 | 0.758 | 0.922 | 0.694 | 0.707 | 1.02 | 1.08 | 1.05 | 1.02 | 1.04 | 0.842 | 0.698 | 0.82 | 0.856 | 0.852 | 1.09 | 0.95 | 1.08 | 0.958 | 0.938 | 0.848 | 0.895 | 0.912 | 0.855 | 0.852 | –
